The results in this text go back to patent US12630600B2 (MEDIMMUNE LIMITED, priority 2022, dated 2026).

The target in data set [1] is T1, human GLP-1 receptor (hGLP-1R) (Homo sapiens, UniProt P43220).
T1 construct: expressed in transfected cells; host or cells: CHO
Briefly: cAMP production (HTRF) in CHO cells expressing human GLP-1 receptor. The format is cell-based. Particulars: Table 8; % GLP-1R activity relative to GLP-1 / % GlucR activity relative to glucagon. (Changes in cAMP serve as a functional read-out for many G protein-coupled receptors.)

A further data set has as its system Male C57Bl/6 mice. Briefly: Mouse acute food intake study. It counts as in vivo. Particulars: s.c., dose 10 nmol/kg, food intake at 24 h vs vehicle. As for the experimental part: Male C57Bl/6 mice obtained from Jackson Laboratories or Charles River at 8-9 weeks of age and were housed one per cage in BioDaq (Research Diets) cages. Mice were placed on Alpha Dri bedding, standard chow diet (Envigo, 2018) and given water pouches. Mice were allowed to acclimate for 1-2 weeks. Body weight was measured to ensure appropriate acclimation. After acclimation, mice were sham dosed a minimum of 2 times prior to initiation of food intake study. On study day, mice were placed in clean cage bottoms, weighed, and fasted for 6-8 hours. Mice were sorted into groups based on average 24-hour food intake data and body weight. 1-2 hours prior to lights out, mice were dosed subcutaneously with one vehicle or test peptide dissolved in an appropriate vehicle at 5 mL/kg. Mice were left undisturbed and allowed access to food and water for 48 hours. Automated food intake was monitored in the BioDaq system was monitored during this time. Discrete food intake data was exported into MS Excel from which cumulative food intake data was generated and analyzed.

Another data set concerns wildtype (WT) mice. Briefly: Glucose change in wildtype mice. To be noted: s.c. The format is in vivo, mouse. How it is done: […] and wildtype (WT) mice at 8-14 weeks of age were singly housed on standard chow diet (Envigo, 2918) and automatic water. They acclimated for a minimum of ˜1-2 weeks, and mice were sorted into groups (n=4-8/group) based on body weight. On day of study, mice were fasted briefly for 2 hrs prior to study start. In some studies, mice were pre-treated with octreotide (BaChem, 10 mg/kg) at 30 minutes prior to peptide injection. Glucose was measured via glucometer at various timepoints including −30 min (prior to octreotide when used in studies), 0 min (before peptide dose), 30, 60, 120, 180, 240, and 360 minutes. Since these studies are acute in nature, mice were re-used for multiple studies (no more than 3) and always allowed at least a minimum wash-out period of 1 week.

Another data set deals with T2, neprilysin (Homo sapiens, UniProt P08473).
T2 construct: purchased R&D Systems 1182-ZNC-010
Briefly: Proteolytic resistance to neprilysin. To be noted: pH 8.3. The format is in vitro ADME. How it is done:
10.0 μg (˜10 units) recombinant Neprilysin (R&D Systems: 1182-ZNC-010) was reconstituted to 100 μL (100 μg/mL, ˜100 units/mL) in assay buffer (50 mM Tris, 50 mM NaCl, 50 mM NaHCO3, adjusted to pH 8.3) to give the enzyme stock solution. Peptide stock solutions were prepared to a concentration of ˜250 μM (˜1.0 mg/mL of 4 kDa peptide) in assay buffer. 100 μL (10 μg, ˜10 units) of neprilysin stock solution was added to 100 μL of peptide stock solution (1.0 mg/mL, ˜100 μg of peptide) and the mixture was co-incubated in a temperature regulated incubator at 37° C. for the duration of the experiment. 25 μL aliquots (˜12.5 μg initial peptide) of the peptide-enzyme mixture were periodically withdrawn (t=0, 30 mins, 1 h, 2 h, 4 h and 24 h) and quenched immediately by addition to an equal volume ([…]) of 10% TFA (v/v) in 1:1 water/acetonitrile to arrest proteolytic activity. The quenched aliquot centrifuged at 7800 rpm, and 30 μL of the supernatant was analyzed by analytical RP-HPLC as follows: Analytical RP-HPLC method: Agilent Polaris C8-A column (4.6×100 mm, 3 micron) eluted with a linear binary gradient of 10-90% MeCN (0.1% TFA v/v) in water (0.1% TFA v/v) over either 10 or 15 mins at 1.5 mL min^−1 at 40° C. with detection by UV absorption at 210 nm. Manual integration (AUC) allowed estimation of remaining intact peptide over the time course of the experiment.

For the next data set, the target named is human glucagon receptor (human, UniProt P47871). Briefly: cell-based or functional assay.

Starred links: 1 amine or outer side, 2 acyl side, 3 side chain; linkers in the order of their positions; H or OH if unused. Non-standard residues stand in square brackets, D forms with d. Residues, ends and D or L forms follow the SMILES beside them. Groups on a side chain read outwards from the residue. No end group written: not given here. *: point of attachment. C20 diacid = O=C(O)CCCCCCCCCCCCCCCCCCC(=O)*; C18 diacid = O=C(O)CCCCCCCCCCCCCCCCC(=O)*; γGlu = O=C(O)[C@H](CCC(=O)[*:2])N[*:1]; Stearoyl = CCCCCCCCCCCCCCCCCC(=O)*; αMeF = C[C@](N)(Cc1ccccc1)C(=O)O; PEG2 = NCCOCCOCCC(=O)O; AEEA = NCCOCCOCC(=O)O; Aib = CC(C)(N)C(=O)O

T1 sequence (P43220 24-463): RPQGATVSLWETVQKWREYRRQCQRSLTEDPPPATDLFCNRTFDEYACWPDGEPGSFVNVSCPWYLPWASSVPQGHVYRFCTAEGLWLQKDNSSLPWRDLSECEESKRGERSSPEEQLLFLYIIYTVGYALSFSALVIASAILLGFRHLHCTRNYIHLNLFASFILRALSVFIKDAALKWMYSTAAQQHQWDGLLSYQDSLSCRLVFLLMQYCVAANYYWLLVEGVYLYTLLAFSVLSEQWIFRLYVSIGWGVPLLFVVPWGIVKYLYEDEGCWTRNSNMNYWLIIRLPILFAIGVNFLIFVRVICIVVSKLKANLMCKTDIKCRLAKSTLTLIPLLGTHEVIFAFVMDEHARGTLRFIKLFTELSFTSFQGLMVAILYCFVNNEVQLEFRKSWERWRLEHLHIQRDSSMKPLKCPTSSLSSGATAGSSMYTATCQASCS
T2 sequence (P08473 whole entry): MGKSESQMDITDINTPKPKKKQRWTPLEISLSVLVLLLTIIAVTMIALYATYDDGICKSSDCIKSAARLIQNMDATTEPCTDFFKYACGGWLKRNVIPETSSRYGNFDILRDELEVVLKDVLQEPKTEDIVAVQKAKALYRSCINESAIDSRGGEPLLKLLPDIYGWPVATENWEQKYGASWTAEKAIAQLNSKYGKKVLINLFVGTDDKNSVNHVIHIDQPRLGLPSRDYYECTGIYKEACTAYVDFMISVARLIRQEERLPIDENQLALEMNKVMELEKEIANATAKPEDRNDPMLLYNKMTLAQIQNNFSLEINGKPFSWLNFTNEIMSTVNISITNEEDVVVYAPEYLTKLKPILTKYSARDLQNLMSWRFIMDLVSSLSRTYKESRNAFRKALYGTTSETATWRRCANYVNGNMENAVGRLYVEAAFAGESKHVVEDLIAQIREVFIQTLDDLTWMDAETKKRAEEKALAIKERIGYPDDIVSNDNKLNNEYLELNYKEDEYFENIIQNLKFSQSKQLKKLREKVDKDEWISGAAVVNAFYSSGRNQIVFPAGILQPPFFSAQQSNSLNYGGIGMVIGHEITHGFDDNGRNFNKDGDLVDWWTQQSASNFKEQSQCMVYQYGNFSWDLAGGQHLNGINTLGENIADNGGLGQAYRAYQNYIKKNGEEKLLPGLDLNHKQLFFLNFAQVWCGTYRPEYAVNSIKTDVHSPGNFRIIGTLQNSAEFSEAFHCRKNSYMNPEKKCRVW

Take `CC[C@H](C)[C@H](NC(=O)C(C)(C)NC(=O)[C@H](CCCCNC(=O)COCCOCCNC(=O)COCCOCCNC(=O)CC[C@H](NC(=O)CC[C@H](NC(=O)CCCCCCCCCCCCCCCCCCC(=O)O)C(=O)O)C(=O)O)NC(=O)[C@@H](NC(=O)[C@](C)(Cc1ccccc1)NC(=O)[C@H](CC(=O)O)NC(=O)[C@H](CCC(N)=O)NC(=O)[C@H](C)NC(=O)[C@H](C)NC(=O)[C@H](CCCNC(=N)N)NC(=O)[C@H](CO)NC(=O)[C@H](CC(=O)O)NC(=O)[C@H](CC(C)C)NC(=O)[C@](C)(Cc1ccccc1)NC(=O)[C@H](CCCCN)NC(=O)[C@H](CO)NC(=O)[C@@H](NC(=O)[C@H](CC(=O)O)NC(=O)[C@H](CO)NC(=O)[C@@H](NC(=O)[C@](C)(Cc1ccccc1)NC(=O)[C@H](CO)NC(=O)CNC(=O)[C@H](Cc1c[nH]cn1)NC(=O)C(C)(C)NC(=O)[C@@H](N)Cc1c[nH]cn1)[C@@H](C)O)C(C)C)C(C)C)C(=O)N[C@@H](C)C(=O)N[C@@H](CC(N)=O)C(=O)N[C@H](C(N)=O)[C@@H](C)O` [Peptide 375] (H-H[Aib]HGS[αMeF]TSDVSK[αMeF]LDSRAAQD[αMeF]VK([AEEA-AEEA-γGlu-γGlu-C20 diacid])[Aib]IANT-NH2): the “% Relative Potency Ratio” value in data set [1] worked out at 1.4. Moreover, in the data set with Male C57Bl/6 mice, the “24 hr % Vehicle Food Intake” value is 66.0%.
For `CCCCCCCCCCCCCCCCCC(=O)N[C@@H](CCC(=O)N[C@@H](CCC(=O)NCCOCCOCCC(=O)NCCOCCOCCC(=O)NCCCC[C@H](NC(=O)[C@H](CO)NC(=O)[C@H](CC(=O)O)NC(=O)[C@H](CC(C)C)NC(=O)[C@](C)(Cc1ccccc1)NC(=O)[C@H](CCCCN)NC(=O)[C@H](CO)NC(=O)[C@@H](NC(=O)[C@H](CC(=O)O)NC(=O)[C@H](CO)NC(=O)[C@@H](NC(=O)[C@](C)(Cc1ccccc1)NC(=O)[C@H](CO)NC(=O)CNC(=O)[C@H](CCC(N)=O)NC(=O)[C@H](CO)NC(=O)[C@@H](N)Cc1c[nH]cn1)[C@@H](C)O)C(C)C)C(=O)N[C@@H](C)C(=O)N[C@@H](C)C(=O)N[C@@H](CCC(N)=O)C(=O)N[C@@H](CC(=O)O)C(=O)N[C@@](C)(Cc1ccccc1)C(=O)N[C@H](C(=O)N[C@@H](CCC(N)=O)C(=O)NC(C)(C)C(=O)N[C@@H](CC(C)C)C(=O)N[C@@H](CCC(=O)O)C(=O)N[C@@H](C)C(=O)NCC(=O)NCC(N)=O)C(C)C)C(=O)O)C(=O)O` [Peptide 78] (H-HSQGS[αMeF]TSDVSK[αMeF]LDSK([PEG2-PEG2-γGlu-γGlu-Stearoyl])AAQD[αMeF]VQ[Aib]LEAGG-NH2; N-terminus assumed), the “WT % glucose change 120 min” value in the data set with wildtype (WT) mice (3 nmol/kg, no somatostatin pretreatment) is −42.0%. Further, the “% intact peptide over time, Neprilysin” value on neprilysin is given as 100%.
Consider `CC[C@H](C)[C@H](NC(=O)[C@H](Cc1c[nH]c2ccccc12)NC(=O)[C@H](CCCCNC(=O)COCCOCCNC(=O)COCCOCCNC(=O)CC[C@H](NC(=O)CCCCCCCCCCCCCCCCC(=O)O)C(=O)O)NC(=O)[C@@H](NC(=O)[C@H](Cc1ccccc1)NC(=O)[C@H](CC(=O)O)NC(=O)[C@H](CCC(N)=O)NC(=O)[C@H](C)NC(=O)[C@H](C)NC(=O)[C@H](CCCNC(=N)N)NC(=O)[C@H](CO)NC(=O)[C@H](CC(=O)O)NC(=O)[C@H](CC(C)C)NC(=O)[C@](C)(Cc1ccccc1)NC(=O)[C@H](CCCCN)NC(=O)[C@H](CO)NC(=O)[C@@H](NC(=O)[C@H](CC(=O)O)NC(=O)[C@H](CO)NC(=O)[C@@H](NC(=O)[C@](C)(Cc1ccccc1)NC(=O)[C@H](CO)NC(=O)CNC(=O)[C@H](Cc1c[nH]cn1)NC(=O)C(C)(C)NC(=O)[C@@H](N)Cc1c[nH]cn1)[C@@H](C)O)C(C)C)C(C)C)C(=O)N[C@@H](C)C(=O)N[C@@H](CC(N)=O)C(=O)N[C@H](C(N)=O)[C@@H](C)O` [Peptide 361] (H-H[Aib]HGS[αMeF]TSDVSK[αMeF]LDSRAAQDFVK([AEEA-AEEA-γGlu-C18 diacid])WIANT-NH2), for which, in the data set on wildtype (WT) mice (10 nmol/kg, somatostatin pretreatment 30 min prior to cpd), the “WT % glucose change 120 min” value is −23.0%. Further, the “% Relative Potency Ratio” value in data set [1] is 1.3.
With `CC(C)C[C@H](NC(=O)[C@H](Cc1c[nH]c2ccccc12)NC(=O)[C@H](CCCNC(=N)N)NC(=O)[C@@H](NC(=O)[C@H](Cc1ccccc1)NC(=O)[C@H](CC(=O)O)NC(=O)[C@H](CCC(N)=O)NC(=O)[C@H](C)NC(=O)[C@H](CCCNC(=N)N)NC(=O)[C@H](CCCCNC(=O)COCCOCCNC(=O)COCCOCCNC(=O)CC[C@H](NC(=O)CCCCCCCCCCCCCCCCC(=O)O)C(=O)O)NC(=O)[C@@H](NC(=O)[C@H](CC(=O)O)NC(=O)[C@H](CC(C)C)NC(=O)[C@](C)(Cc1ccccc1)NC(=O)[C@H](CCCCN)NC(=O)[C@H](CO)NC(=O)[C@@H](NC(=O)[C@H](CC(=O)O)NC(=O)[C@H](CO)NC(=O)[C@@H](NC(=O)[C@H](Cc1ccccc1)NC(=O)[C@@H](NC(=O)CNC(=O)[C@H](CCC(N)=O)NC(=O)C(C)(C)NC(=O)[C@@H](N)Cc1c[nH]cn1)[C@@H](C)O)[C@@H](C)O)C(C)C)[C@@H](C)O)C(C)C)C(=O)N[C@@H](CC(C)C)C(=O)N[C@@H](CCC(=O)O)C(=O)NC(C)(C)C(=O)NCC(=O)O` [Peptide 140] (H-H[Aib]QGTFTSDVSK[αMeF]LDTK([AEEA-AEEA-γGlu-C18 diacid])RAQDFVRWLLE[Aib]G-OH; N-terminus assumed), the “WT % glucose change 60 min” value in the data set with wildtype (WT) mice (30 nmol/kg, no somatostatin pretreatment) is recorded as −29.0%.

B1: Peptide 362 (peptide)
peptide: H[Aib]HGS[αMeF]TSDVSK[αMeF]LDSRAAQDFVK([AEEA-AEEA-γGlu-γGlu-C18 diacid])WIANT-NH2
modifications: N-terminus assumed
SMILES: CC[C@H](C)[C@H](NC(=O)[C@H](Cc1c[nH]c2ccccc12)NC(=O)[C@H](CCCCNC(=O)COCCOCCNC(=O)COCCOCCNC(=O)CC[C@H](NC(=O)CC[C@H](NC(=O)CCCCCCCCCCCCCCCCC(=O)O)C(=O)O)C(=O)O)NC(=O)[C@@H](NC(=O)[C@H](Cc1ccccc1)NC(=O)[C@H](CC(=O)O)NC(=O)[C@H](CCC(N)=O)NC(=O)[C@H](C)NC(=O)[C@H](C)NC(=O)[C@H](CCCNC(=N)N)NC(=O)[C@H](CO)NC(=O)[C@H](CC(=O)O)NC(=O)[C@H](CC(C)C)NC(=O)[C@](C)(Cc1ccccc1)NC(=O)[C@H](CCCCN)NC(=O)[C@H](CO)NC(=O)[C@@H](NC(=O)[C@H](CC(=O)O)NC(=O)[C@H](CO)NC(=O)[C@@H](NC(=O)[C@](C)(Cc1ccccc1)NC(=O)[C@H](CO)NC(=O)CNC(=O)[C@H](Cc1c[nH]cn1)NC(=O)C(C)(C)NC(=O)[C@@H](N)Cc1c[nH]cn1)[C@@H](C)O)C(C)C)C(C)C)C(=O)N[C@@H](C)C(=O)N[C@@H](CC(N)=O)C(=O)N[C@H](C(N)=O)[C@@H](C)O
Regarding B1, in the data set with human glucagon receptor, the “hGluc-R EC50 (pM)” value was 42.8 pM.
On the same count and under the same terms, in the case of H[Aib]HGS[αMeF]TSDVSK[αMeF]LDSRAAQDFVK([AEEA-AEEA-γGlu-C20 diacid])WIANT-NH2 (not fully specified) [Peptide 367] it was 72.4 pM.
